Test results published in PMC4689404, “2-Benzazolyl-4-Piperazin-1-Ylsulfonylbenzenecarbohydroxamic Acids as Novel Selective Histone Deacetylase-6 Inhibitors with Antiproliferative Activity” (PLoS ONE, 2015).

Assays:
[1] = system: EKVX; assay: NCI 60 screen, five dose; type: cell-based; settings: Homo sapiens, Non-Small Cell Lung Cancer, GI50 = molar concentration, read-out: Log10 GI50 (converted)
[2] = system: M14; assay: NCI 60 screen, five dose; type: cell-based; settings: Homo sapiens, Melanoma, GI50 = molar concentration, read-out: Log10 GI50 (converted)
[3] = system: SK-MEL-2; assay: NCI 60 screen, five dose; type: cell-based; settings: Homo sapiens, Melanoma, GI50 = molar concentration, read-out: Log10 GI50 (converted)
[4] = system: NCI-H226; assay: NCI 60 screen, five dose; type: cell-based; settings: Homo sapiens, Non-Small Cell Lung Cancer, GI50 = molar concentration, read-out: Log10 GI50 (converted)
[5] = system: DU-145; assay: NCI 60 screen, five dose; type: cell-based; settings: Homo sapiens, Prostate Cancer, GI50 = molar concentration, read-out: Log10 GI50 (converted)
[6] = system: IGROV1; assay: NCI 60 screen, five dose; type: cell-based; settings: Homo sapiens, IGROV-1, Ovarian Cancer, GI50 = molar concentration, read-out: Log10 GI50 (converted)
[7] = system: Leukemia cell lines; assay: NCI 60 screen, five dose; type: cell-based, human; settings: for GI50: Homo sapiens; for no. cell lines used for the assay/no inhibited by compound: figures in parenthesis
[8] = system: NCI-H522; assay: NCI 60 screen, five dose; type: cell-based; settings: Homo sapiens, Non-Small Cell Lung Cancer, GI50 = molar concentration, read-out: Log10 GI50 (converted)
[9] = system: SF-295; assay: NCI 60 screen, five dose; type: cell-based; settings: Homo sapiens, CNS Cancer, GI50 = molar concentration, read-out: Log10 GI50 (converted)
[10] = system: NCI-H23; assay: NCI 60 screen, five dose; type: cell-based; settings: Homo sapiens, Non-Small Cell Lung Cancer, GI50 = molar concentration, read-out: Log10 GI50 (converted)
[11] = system: UACC-257; assay: NCI 60 screen, five dose; type: cell-based; settings: Homo sapiens, Melanoma, GI50 = molar concentration, read-out: Log10 GI50 (converted)
[12] = system: Renal Cancer cell lines; assay: NCI 60 screen, five dose; type: cell-based, human; settings: for GI50: Homo sapiens; for no. cell lines used for the assay/no inhibited by compound: figures in parenthesis
[13] = system: Ovarian cancer cell lines; assay: NCI 60 screen, five dose; type: cell-based, human; settings: for GI50: Homo sapiens; for no. cell lines used for the assay/no inhibited by compound: figures in parenthesis
[14] = system: HOP-62; assay: NCI 60 screen, five dose; type: cell-based; settings: Homo sapiens, Non-Small Cell Lung Cancer, GI50 = molar concentration, read-out: Log10 GI50 (converted)
[15] = system: OVCAR-8; assay: NCI 60 screen, five dose; type: cell-based; settings: Homo sapiens, Ovarian Cancer, GI50 = molar concentration, read-out: Log10 GI50 (converted)
[16] = system: Melanoma cell lines; assay: NCI 60 screen, five dose; type: cell-based, human; settings: for GI50: Homo sapiens; for no. cell lines used for the assay/no inhibited by compound: figures in parenthesis
[17] = system: SK-OV-3; assay: NCI 60 screen, five dose; type: cell-based; settings: Homo sapiens, Ovarian Cancer, GI50 = molar concentration, read-out: Log10 GI50 (converted)
[18] = system: KM12; assay: NCI 60 screen, five dose; type: cell-based; settings: Homo sapiens, Colon Cancer, GI50 = molar concentration, read-out: Log10 GI50 (converted)
[19] = system: HCC-2998; assay: NCI 60 screen, five dose; type: cell-based; settings: Homo sapiens, Colon Cancer, GI50 = molar concentration, read-out: Log10 GI50 (converted)
[20] = system: PC-3; assay: NCI 60 screen, five dose; type: cell-based; settings: Homo sapiens, Prostate Cancer, GI50 = molar concentration, read-out: Log10 GI50 (converted)
[21] = system: MDA-MB-231/ATCC; assay: NCI 60 screen, five dose; type: cell-based; settings: Homo sapiens, Breast Cancer, GI50 = molar concentration, read-out: Log10 GI50 (converted)
[22] = system: SF-539; assay: NCI 60 screen, five dose; type: cell-based; settings: Homo sapiens, CNS Cancer, GI50 = molar concentration, read-out: Log10 GI50 (converted)
[23] = system: NCI-H322M; assay: NCI 60 screen, five dose; type: cell-based; settings: Homo sapiens, Non-Small Cell Lung Cancer, GI50 = molar concentration, read-out: Log10 GI50 (converted)
[24] = system: HCC4017 cells; assay: Annexin V apoptosis assay; type: cell-based, human; settings: 18h, 40h, 64h
Description: For cell cycle analysis, cells were washed with PBS, fixed in 70% ethanol for 2 h, washed with PBS and resuspended in staining solution (0.1% Triton X-100, 0.2 mg/ml DNAse-free RNAse A and […]) and incubated at 37C for 15 min. Histograms were acquired on a BD FACSCalibur flow cytometer at UT Southwestern’s core facility. Apoptosis was measured using a FITC Annexin V Apoptosis Detection Kit I (BD Pharmingen) according to manufacturer’s protocol after treating cells with compounds as indicated in Figure legends.

[25] = system: RPMI-8226; assay: NCI 60 screen, five dose; type: cell-based; settings: Homo sapiens, Leukemia, GI50 = molar concentration, read-out: Log10 GI50 (converted)
[26] = system: Prostate Cancer cell lines; assay: NCI 60 screen, five dose; type: cell-based, human; settings: for GI50: Homo sapiens; for no. cell lines used for the assay/no inhibited by compound: figures in parenthesis
[27] = system: SF-268; assay: NCI 60 screen, five dose; type: cell-based; settings: Homo sapiens, CNS Cancer, GI50 = molar concentration, read-out: Log10 GI50 (converted)
[28] = system: UACC-62; assay: NCI 60 screen, five dose; type: cell-based; settings: Homo sapiens, Melanoma, GI50 = molar concentration, read-out: Log10 GI50 (converted)
[29] = system: MCF7; assay: NCI 60 screen, five dose; type: cell-based; settings: Homo sapiens, Breast Cancer, GI50 = molar concentration, read-out: Log10 GI50 (converted)
[30] = system: SNB-75; assay: NCI 60 screen, five dose; type: cell-based; settings: Homo sapiens, CNS Cancer, GI50 = molar concentration, read-out: Log10 GI50 (converted)
[31] = system: UO-31; assay: NCI 60 screen, five dose; type: cell-based; settings: Homo sapiens, Renal Cancer, GI50 = molar concentration, read-out: Log10 GI50 (converted)
[32] = system: BT-549; assay: NCI 60 screen, five dose; type: cell-based; settings: Homo sapiens, Breast Cancer, GI50 = molar concentration, read-out: Log10 GI50 (converted)
[33] = system: SN12C; assay: NCI 60 screen, five dose; type: cell-based; settings: Homo sapiens, Renal Cancer, GI50 = molar concentration, read-out: Log10 GI50 (converted)
[34] = system: COLO 205; assay: NCI 60 screen, five dose; type: cell-based; settings: Homo sapiens, Colon Cancer, GI50 = molar concentration, read-out: Log10 GI50 (converted)
[35] = system: SNB-19; assay: NCI 60 screen, five dose; type: cell-based; settings: Homo sapiens, CNS Cancer, GI50 = molar concentration, read-out: Log10 GI50 (converted)
[36] = system: SK-MEL-28; assay: NCI 60 screen, five dose; type: cell-based; settings: Homo sapiens, Melanoma, GI50 = molar concentration, read-out: Log10 GI50 (converted)
[37] = system: 786-0; assay: NCI 60 screen, five dose; type: cell-based; settings: Homo sapiens, Renal Cancer, GI50 = molar concentration, read-out: Log10 GI50 (converted)
[38] = system: HCT-116; assay: NCI 60 screen, five dose; type: cell-based; settings: Homo sapiens, Colon Cancer, GI50 = molar concentration, read-out: Log10 GI50 (converted)
[39] = system: Colon cancer cell lines; assay: NCI 60 screen, five dose; type: cell-based, human; settings: for GI50: Homo sapiens; for no. cell lines used for the assay/no inhibited by compound: figures in parenthesis
[40] = system: Non-Small Cell Lung cancer cell lines; assay: NCI 60 screen, five dose; type: cell-based, human; settings: NSCL cancer; for GI50: Homo sapiens; for no. cell lines used for the assay/no inhibited by compound: figures in parenthesis
[41] = system: SK-MEL-5; assay: NCI 60 screen, five dose; type: cell-based; settings: Homo sapiens, Melanoma, GI50 = molar concentration, read-out: Log10 GI50 (converted)
[42] = system: OVCAR-5; assay: NCI 60 screen, five dose; type: cell-based; settings: Homo sapiens, Ovarian Cancer, GI50 = molar concentration, read-out: Log10 GI50 (converted)

O=C(NO)c1ccc(S(=O)(=O)N2CCN(c3nc4ccccc4o3)CC2)cc1 [Compound 9c, 4-(4-Benzoxazol-2-yl-piperazin-1-sulfonyl)-N -hydroxy-benzamid]
GI50 [1]: 8.91 µM
GI50 [2]: 5.89 µM
GI50 [3]: 16.2 µM
GI50 [4]: 20.9 µM
GI50 [5]: 7.41 µM
GI50 [6]: 11 µM
GI50 [7]: 2.24 µM
no. cell lines used for the assay/no inhibited by compound [7]: 4/4
GI50 [8]: 6.03 µM
GI50 [9]: 3.09 µM
GI50 [10]: 3.72 µM
GI50 [11]: 6.46 µM
GI50 [12]: 8.24 µM
no. cell lines used for the assay/no inhibited by compound [12]: 3/8
GI50 [13]: 7.66 µM
no. cell lines used for the assay/no inhibited by compound [13]: 2/5
GI50 [14]: 12 µM
GI50 [15]: 3.24 µM
GI50 [16]: 5.62 µM
no. cell lines used for the assay/no inhibited by compound [16]: 6/8
GI50 [17]: 14.8 µM
GI50 [18]: 5.13 µM
GI50 [19]: 17.4 µM
GI50 [20]: 3.24 µM
GI50 [21]: 13.2 µM
GI50 [22]: 3.72 µM
GI50 [23]: 14.5 µM
Annexin V staining, percent of dead cells [24]: did not show any reproducible significant changes
GI50 [25]: 0.38 µM
GI50 [26]: 4.89 µM
no. cell lines used for the assay/no inhibited by compound [26]: 2/2
GI50 [27]: 12 µM
GI50 [28]: 4.27 µM
GI50 [29]: 3.8 µM
GI50 [30]: 4.37 µM
GI50 [31]: 10.7 µM
GI50 [32]: 12 µM
GI50 [33]: 11.7 µM
GI50 [34]: 1.7 µM
GI50 [35]: 10 µM
GI50 [36]: 4.57 µM
GI50 [37]: 23.4 µM
GI50 [38]: 4.07 µM
GI50 [39]: 6.05 µM
no. cell lines used for the assay/no inhibited by compound [39]: 4/6
GI50 [40]: 9.51 µM
no. cell lines used for the assay/no inhibited by compound [40]: 3/9
GI50 [41]: 5.62 µM
GI50 [42]: 10.2 µM

O=C(NO)c1ccc(S(=O)(=O)N2CCN(c3nc4ccccc4s3)CC2)cc1 [Compound 9d, 4-(4-Benzothiazol-2-yl-piperazin-1-sulfonyl)-N -hydroxy-benzamid]
GI50 [1]: 4.37 µM
GI50 [2]: 1.62 µM
GI50 [3]: 6.31 µM
GI50 [4]: 10 µM
GI50 [5]: 3.02 µM
GI50 [6]: 3.55 µM
GI50 [7]: 1.77 µM
no. cell lines used for the assay/no inhibited by compound [7]: 5/5
GI50 [8]: 2.29 µM
GI50 [9]: 1.86 µM
GI50 [10]: 1.55 µM
GI50 [11]: 3.55 µM
GI50 [12]: 3.94 µM
no. cell lines used for the assay/no inhibited by compound [12]: 3/8
GI50 [13]: 4.01 µM
no. cell lines used for the assay/no inhibited by compound [13]: 3/3
GI50 [14]: 3.8 µM
GI50 [15]: 1.7 µM
GI50 [16]: 2.66 µM
no. cell lines used for the assay/no inhibited by compound [16]: 5/8
GI50 [17]: 7.76 µM
GI50 [18]: 2.14 µM
GI50 [19]: 2.14 µM
GI50 [20]: 2.04 µM
GI50 [21]: 5.01 µM
GI50 [22]: 2.34 µM
GI50 [23]: 5.62 µM
GI50 [25]: 1.38 µM
GI50 [26]: 2.48 µM
no. cell lines used for the assay/no inhibited by compound [26]: 2/2
GI50 [27]: 3.98 µM
GI50 [28]: 1.7 µM
GI50 [29]: 15.8 µM
GI50 [30]: 1.74 µM
GI50 [31]: 4.37 µM
GI50 [32]: 2.4 µM
GI50 [33]: 10.5 µM
GI50 [34]: 3.02 µM
GI50 [35]: 5.37 µM
GI50 [36]: 1.58 µM
GI50 [37]: 9.12 µM
GI50 [38]: 1.7 µM
GI50 [39]: 2.3 µM
no. cell lines used for the assay/no inhibited by compound [39]: 6/7
GI50 [40]: 3.77 µM
no. cell lines used for the assay/no inhibited by compound [40]: 4/9
GI50 [41]: 3.98 µM
GI50 [42]: 7.76 µM

Cn1c(N2CCN(S(=O)(=O)c3ccc(C(=O)NO)cc3)CC2)nc2ccccc21 [Compound 9b, 4-[4-(1-methylbenzimidazol-2-yl)piperazin-1-yl]sulfonylbenzenecarbohydroxamic acid]
Annexin V staining, percent of dead cells [24]: did not show any reproducible significant changes
